Data: patent US20220324770A1, “NITRIFICATION INHIBITORS” (The University of Melbourne, priority 2019, published 2022)

Tests used:
South Johnstone soil = test: Soil thin-layer chromatography (TLC) leaching study, South Johnstone soil; format: physicochemical; settings: for Detected Inhibitor (%): South Johnstone soil TLC
Method: (§1) TLC plates were prepared based on methods described in the literature (Helling, C. S., Turner, B. C, Science 1968, 162, 562-563; Mohammad, A., Jabeen, N., JPC—Journal of Planar Chromatography—Modern TLC 2003, 16, 137-143). Masking tape (3 layers, ˜[…] total thickness) was used to outline three columns (4 cm W×12 cm H) on a glass TLC plate (20×20 cm). A slurry of freshly ground soil in distilled H2O (˜2:3 m/v) was then poured onto the prepared plate and spread evenly using a glass rod. Once even, the plate was dried overnight in an oven at 35° C. Careful removal of the masking tape afforded the TLC plate ready for sample application.
(§2) Samples of DMP (the active core of DMPP) or Compound 16 (˜1 mg) dissolved in acetone (100 μL) were pipetted in a straight line across the soil, 2 cm above the base of the plate. Application band thickness was kept under 0.5 cm. After 30 mins of drying time, the TLC plate was developed inside a glass developing chamber with distilled H2O (depth of 0.5 cm) until the solvent front reached the top of the soil (˜1 hr). […] The plate was then allowed to air dry overnight.
(§3) Once dry, the plate was divided into six horizontal bands corresponding to Rf values of: (1) <0.05 (baseline), (2) 0.05 to 0.25, (3) 0.25 to 0.45, (4) 0.45 to 0.65, (5) 0.65 to 0.85, and (6) 0.85 to 1. In sequence, soil in each band was carefully scraped off the glass backing and collected in vials. Special care was taken to avoid cross-contamination between soil of different bands, and the separate channels.
(§4) Individual soil bands collected from the TLC plate were extracted as follows: • 1. Addition of an aqueous solution of CaCl2/MgSO4 (0.01M and 0.45M respectively, 2 mL). • 2. Sonication for 5 minutes then manual shaking for 30 seconds. • 3. Addition of methyl-tert-butyl ether (MTBE, 2 mL) then manual shaking for 30 seconds. • 4. Sonication for 10 minutes then manual shaking for 30 seconds. • 5. Rested until soil began to settle, then frozen overnight at −20° C. • 6. After partial defrosting, the ethereal extract was filtered through nylon syringe filters (FilterBio®, 13 mm diameter, 0.45 µm pore size).
(§5) The filtered ethereal extracts (450 μL) were spiked with 50 μL of a standard solution of either cyclododecanone in MTBE (1.97 mg/mL, for DMP-treated samples) or cyclooctanone in MTBE (6.37 mg/mL, for 16-treated samples). Samples were then directly analysed by GC-MS (method: 70° C. for 5 mins, then ramp 10° C./min to 250° C., hold at 250° C. for 17 mins [total run time=40 minutes]) to analyse the presence or absence of the inhibitor in each soil band.
(§6) GC-MS peak areas calculated for the standards cyclooctanone (Rt=9.1 mins) and cyclododecanone (Rt=15.8 mins) were compared to those calculated for Compound 16 (Rt=13.9 mins) and DMP (Rt=7.6 mins) respectively, for each soil sample extract where inhibitor was detected as follows:
(§7) As each treatment was run in triplicate, mean values are reported for detected inhibitor percentages for each Rf band, with errors presented as the standard deviation.
as §2, with “the DCD” for “DMP (the active core of DMPP) or Compound 16”, “methanol (300” for “acetone (100”, “in” for “with”
(§8) Individual soil bands collected from the TLC plate were extracted as follows: • 1. Addition of methanol (2 mL). • 2. Manual shaking for 30 seconds following sonication for 15 minutes. • 3. Once soil began to settle, the methanolic extract was filtered through nylon syringe filters (FilterBio®, 13 mm diameter, 0.45 µm pore size). • 4. 300 μL of the methanolic extracts were evaporated under nitrogen flow, and then the residues was taken up in ultrapure acetonitrile (1 mL). • 5. […]

Dahlen soil = test: Soil thin-layer chromatography (TLC) leaching study, Dahlen soil; format: physicochemical
Method: as §1, §2, §3, §4, §5, §6, §7
as §2, with “the DCD” for “DMP (the active core of DMPP) or Compound 16”, “methanol (300” for “acetone (100”, “in” for “with”
as §8

CCCc1cn(CCC)nn1 [Compound 16, 1,4-dipropyl-1H-1,2,3-triazole]
Detected Inhibitor (%) (South Johnstone soil; Rf 0.05-0.25): 1 ± 1% | Detected Inhibitor (%) (South Johnstone soil; Rf 0.25-0.45): 5 ± 6% | Detected Inhibitor (%) (South Johnstone soil; Rf 0.45-0.65): 34 ± 5% | Detected Inhibitor (%) (South Johnstone soil; Rf 0.65-0.85): 49 ± 9% | Detected Inhibitor (%) (South Johnstone soil; Rf 0.85-1): 11 ± 3% | leaching tendency (conclusion) (South Johnstone soil; acidic soils): lower-to-similar leaching tendencies to DCD | Rf range in which the majority of the inhibitor was detected (Dahlen soil; Dahlen soil TLC): 0.25-0.45 | Detected Inhibitor (%) (Dahlen soil; Dahlen soil TLC, Rf 0.05-0.25): 3 ± 4% | Detected Inhibitor (%) (Dahlen soil; Dahlen soil TLC, Rf 0.25-0.45): 58 ± 14% | Detected Inhibitor (%) (Dahlen soil; Dahlen soil TLC, Rf 0.45-0.65): 38 ± 16% | Detected Inhibitor (%) (Dahlen soil; Dahlen soil TLC, Rf 0.65-0.85): 1 ± 1% | mobility in soil TLC (Dahlen soil; neutral Dahlen soil): reduced mobility compared to DMP | leachability (conclusion) (Dahlen soil; neutral soils): lower leachability than DMP and DCD
